Assays:
[1] = Test for solubility of alkyl-aryl 1,3-propanedione silicone derivative in silicone-based oils and Squalene at 25° C.; assay type: physicochemical; conditions: for Solubility, Scwr, 30% / Solubility, Scwr, 50%: Scwr (Squalene); for Solubility, Scwr, 30%: 30% (w/w); for Solubility, Scwr, 50%: 50% (w/w); for Solubility, Silicon KF56, 30%: Silicone KF 56, 30% (w/w); for Solubility, Silicon KF56, 50%: Silicone KF 56, 50% (w/w); for Solubility, Sil. KF96, 30%: Silicone KF96, 30% (w/w); for Solubility, Sil. KF96, 50%: Silicone KF96, 50% (w/w)
Description: A circle (O) mark is put to a compound which is completely dissolved under 25° C., and a cross (X) mark is put to a compound which makes the solution cloudy even a little.

[2] = Ultraviolet ray absorption spectrum; assay type: physicochemical; design: ε: unit not given beside the values; conditions: for ε: at λmax; for λmax: ultraviolet ray absorption

Structure (SMILES): COc1cc(C(=O)CC(=O)C(C)(C)C)ccc1OCCC[Si](C)(C)O[Si](C)(C)C [Compound 1]
- Solubility, Scwr, 30% [1]: .largecircle.
- Solubility, Scwr, 50% [1]: .largecircle.
- Solubility, Silicon KF56, 30% [1]: .largecircle.
- Solubility, Silicon KF56, 50% [1]: .largecircle.
- Solubility, Sil. KF96, 30% [1]: .largecircle.
- Solubility, Sil. KF96, 50% [1]: .largecircle.
- ε [2]: 24090
- λmax [2]: 335 nm

Structure (SMILES): COc1cc(C(=O)CC(=O)C(C)(C)C)ccc1OCCC[Si](C)(O[Si](C)(C)C)O[Si](C)(C)C [Compound 2]
- Solubility, Scwr, 30% [1]: .largecircle.
- Solubility, Scwr, 50% [1]: .largecircle.
- Solubility, Silicon KF56, 30% [1]: .largecircle.
- Solubility, Silicon KF56, 50% [1]: .largecircle.
- Solubility, Sil. KF96, 30% [1]: .largecircle.
- Solubility, Sil. KF96, 50% [1]: .largecircle.
- ε [2]: 23550
- λmax [2]: 334 nm

Structure (SMILES): COc1ccc(C(=O)CC(=O)C(C)(C)C)cc1OCCC[Si](C)(O[Si](C)(C)C)O[Si](C)(C)C [Compound 3]
- Solubility, Scwr, 30% [1]: .largecircle.
- Solubility, Scwr, 50% [1]: .largecircle.
- Solubility, Silicon KF56, 30% [1]: .largecircle.
- Solubility, Silicon KF56, 50% [1]: .largecircle.
- Solubility, Sil. KF96, 30% [1]: .largecircle.
- Solubility, Sil. KF96, 50% [1]: .largecircle.

Structure (SMILES): CCCCC(CC)C(=O)CC(=O)c1cc(CCC[Si](C)(O[Si](C)(C)C)O[Si](C)(C)C)c(OC)c(OC)c1 (centres unmarked) [Compound 5]
- Solubility, Scwr, 30% [1]: .largecircle.
- Solubility, Scwr, 50% [1]: .largecircle.
- Solubility, Silicon KF56, 30% [1]: .largecircle.
- Solubility, Silicon KF56, 50% [1]: .largecircle.
- Solubility, Sil. KF96, 30% [1]: .largecircle.
- Solubility, Sil. KF96, 50% [1]: .largecircle.
- ε [2]: 23500
- λmax [2]: 334 nm

Structure (SMILES): CCCCC(CC)C(=O)CC(=O)c1cc(CCC[Si](C)(O[Si](C)(C)C)O[Si](C)(C)C)c(OC)c(OC)c1 (centres unmarked) [Compound 6]
- Solubility, Scwr, 30% [1]: .largecircle.
- Solubility, Scwr, 50% [1]: .largecircle.
- Solubility, Silicon KF56, 30% [1]: .largecircle.
- Solubility, Silicon KF56, 50% [1]: .largecircle.
- Solubility, Sil. KF96, 30% [1]: .largecircle.
- Solubility, Sil. KF96, 50% [1]: .largecircle.

Structure (SMILES): COc1cc(C(=O)CC(=O)C(C)(C)C)ccc1OCC(C)C[Si](C)(O[Si](C)(C)C)O[Si](C)(C)C (centres unmarked) [Compound 7]
- Solubility, Scwr, 30% [1]: .largecircle.
- Solubility, Scwr, 50% [1]: .largecircle.
- Solubility, Silicon KF56, 30% [1]: .largecircle.
- Solubility, Silicon KF56, 50% [1]: .largecircle.
- Solubility, Sil. KF96, 30% [1]: .largecircle.
- Solubility, Sil. KF96, 50% [1]: .largecircle.
- ε [2]: 27350
- λmax [2]: 334 nm

Structure (SMILES): COc1cc(C(=O)CC(=O)C(C)(C)C)ccc1OCCCCC[Si](C)(O[Si](C)(C)C)O[Si](C)(C)C [Compound 8]
- Solubility, Scwr, 30% [1]: .largecircle.
- Solubility, Scwr, 50% [1]: .largecircle.
- Solubility, Silicon KF56, 30% [1]: .largecircle.
- Solubility, Silicon KF56, 50% [1]: .largecircle.
- Solubility, Sil. KF96, 30% [1]: .largecircle.
- Solubility, Sil. KF96, 50% [1]: .largecircle.
- ε [2]: 23220
- λmax [2]: 334 nm

Structure (SMILES): COc1cc(C(=O)CC(=O)C(C)(C)C)cc(CCC[Si](C)(O[Si](C)(C)C)O[Si](C)(C)C)c1O [Compound 9]
- Solubility, Scwr, 30% [1]: .largecircle.
- Solubility, Scwr, 50% [1]: .largecircle.
- Solubility, Silicon KF56, 30% [1]: .largecircle.
- Solubility, Silicon KF56, 50% [1]: .largecircle.
- Solubility, Sil. KF96, 30% [1]: .largecircle.
- ε [2]: 24000
- λmax [2]: 342 nm
